Where no end group is shown, it is not given here.
What was measured:
B. subtilis KCTC1021 = experiment: Killing kinetic assay; type: cell-based, Bacillus subtilis; conditions: 10^6 CFU/mL, 37 °C, triplicate averaged
Method: To determine the killing activities of ofLBP-derived analogs, kinetic studies were performed using B. subtilis KCTC1021 and E. coli ML35p at 1× MEC and 5× MEC concentrations. Overnight culture of B. subtilis KCTC1021 and E. coli ML35p were diluted in TBS to a cell density of 10^6 CFU/mL and 1 mL of each suspension was exposed to each ofLBP-derived analog and incubated at 37 °C overnight. The resulting colonies were counted. Percent killing was calculated as the proportion of live bacteria at a given time point following the addition of peptide compared to the number of bacteria present prior to the addition of peptide. Control cultures of each bacterium were incubated without any peptide and assayed at time points corresponding to the test culture assays to ensure no spontaneous loss of viability. Killing kinetic assays were also performed in triplicate, and the results were averaged.

[1] = Calcein leakage assay, neutral liposomes; conditions: DOPC LUVs 95 µM, 20 mM TES pH 7.4, 25 °C, 3 min, peptide 20 μM
Method: (§1) For leakage experiments, large unilamellar vesicles (LUVs) (DOPC or DOPC-DOPG, 3:1) with encapsulated calcein were prepared using the extrusion method. The desired mixtures of phospholipids were dried in glass tubes under nitrogen and then lyophilized overnight to obtain lipid films. The dry lipid films were suspended in leakage buffer (20 mM TES buffer containing 150 mM NaCl, pH 7.4) and 70 mM calcein, and then vortexed occasionally to disperse the lipids. The suspension was freeze–thawed in liquid nitrogen for 10 cycles and extruded 10 times through 0.1-μm polycarbonate membrane filters in an Avanti mini extruder apparatus (Avanti Polar Lipids, Inc., Alabaster, AL, USA). […]
(§2) Leakage of calcein from liposomes was determined as described by Park et al.. […] The increase in the fluorescence of calcein when leaking out of liposomes was monitored at an emission wavelength of 520 nm and an excitation wavelength at 490 nm. The change in fluorescence intensity was measured for 3 min after peptide addition. […] The percentage of dye release was calculated as follows: Dye leakage (%) = 100 × (F − F0)/(Ft − F0) Where F is the fluorescence intensity caused by the peptide and F0 and Ft are those with buffer alone and with 10% Triton X-100, respectively.

[2] = Calcein leakage assay, acidic liposomes; conditions: DOPC/DOPG (3:1) LUVs 95 µM, 20 mM TES pH 7.4, 25 °C, 3 min, peptide 20 μM
Method: as §1, §2

| Substance | Time to kill B. subtilis KCTC1021 at 1× MEC (B. subtilis KCTC1021) [min] | Time to kill B. subtilis KCTC1021 at 5× MEC (B. subtilis KCTC1021) [min] | Leakage of entrapped calcein from neutral liposomes at 20 μM [1] | Leakage of entrapped calcein from acidic liposomes at 20 μM [2] |
| --- | --- | --- | --- | --- |
| Piscidin 1 [reference compound] | ≤ 40 | ≤ 10 | complete leakage | complete leakage |
| MKLVKTWLKVLK-NH2 [ofLBP 6A] | ≤ 40 | ≤ 10 | – | – |
